Assay results as given in the supplement of paper PMC10307832.

How the values were obtained:
Test in all cases: relative viability (nuclei count vs DMSO), 5 days (fraction); higher = more cells survive
[1] = compound: C1CNCCC1C2=CC(=NN2)C3=CC=NC=C3 + COc1cc2c(Oc3ccc(NC(=O)C4(C(=O)Nc5ccc(F)cc5)CC4)cc3F)ccnc2cc1OCCCN1CCOCC1 [Foretinib] (partner 0.25 µM)
Method in brief: (§1)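 Nuclei were stained with Hoechst during a one-step fixation (final 0.05% Triton X-100, 1% formaldehyde, 1 ug/ml Hoechst) carried out 5 days after dosing, then counted on 4× images. The cells, lung cancer lines in 1536-well plates, had been dosed by pin tool the day after seeding with one drug alone or a fixed anchor-drug dose plus five library-drug doses (not always all listed) in √10 steps. Relative viability is the nuclei count in treated wells divided by that in vehicle wells, and each value is the median of duplicate plates.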

[2] = compound: C[C@@H](N)c1ccc(C(=O)Nc2ccnc3[nH]ccc23)cc1 + Nc1nc2[nH]cc(CCc3ccc(C(=O)N[C@@H](CCC(=O)O)C(=O)O)cc3)c2c(=O)[nH]1 [Pemetrexed] (partner 0.2 µM)
Method in brief: as §1

Tanzisertib + Tozasertib = compound: O[C@H]1CC[C@H](Nc2ncc3nc(Nc4c(F)cc(F)cc4F)n([C@H]4CCOC4)c3n2)CC1 [Tanzisertib] + Cc1cc(Nc2cc(N3CCN(C)CC3)nc(Sc3ccc(NC(=O)C4CC4)cc3)n2)n[nH]1 [Tozasertib] (partner 0.1 µM)
Method in brief: as §1

Tanzisertib + Decitabine = compound: O[C@H]1CC[C@H](Nc2ncc3nc(Nc4c(F)cc(F)cc4F)n([C@H]4CCOC4)c3n2)CC1 [Tanzisertib] + Nc1ncn([C@H]2C[C@H](O)[C@@H](CO)O2)c(=O)n1 [Decitabine] (partner 2 µM)
Method in brief: as §1

Cell Line | relative viability ([1]; first compound 0.08 µM) | relative viability ([1]; first compound 0.8 µM) | relative viability ([1]; first compound 2.53 µM) | relative viability ([1]; first compound 8 µM) | relative viability ([2]; first compound 0.04 µM) | relative viability ([2]; first compound 0.1265 µM) | relative viability ([2]; first compound 0.4 µM) | relative viability ([2]; first compound 1.265 µM) | relative viability ([2]; first compound 4 µM) | relative viability (Tanzisertib + Tozasertib; first compound 0.08 µM) | relative viability (Tanzisertib + Tozasertib; first compound 0.253 µM) | relative viability (Tanzisertib + Tozasertib; first compound 0.8 µM) | relative viability (Tanzisertib + Tozasertib; first compound 2.53 µM) | relative viability (Tanzisertib + Tozasertib; first compound 8 µM) | relative viability (Tanzisertib + Decitabine; first compound 0.08 µM) | relative viability (Tanzisertib + Decitabine; first compound 0.253 µM) | relative viability (Tanzisertib + Decitabine; first compound 0.8 µM) | relative viability (Tanzisertib + Decitabine; first compound 2.53 µM) | relative viability (Tanzisertib + Decitabine; first compound 8 µM)
PC-3 [JPC-3] | 1.01 | 1.07 | 1.1 | 1.04 | 1.12 | 1.07 | 1.16 | 1.07 | 0.88 | 0.903 | 0.99 | 0.943 | 0.852 | 0.781 | 0.836 | 0.787 | 0.803 | 0.801 | 0.737
NCI-H1792 |  |  |  |  | 0.817 | 0.731 | 0.875 | 0.72 | 0.584 |  |  |  |  |  | 0.668 | 0.539 | 0.487 | 0.569 | 0.566
NCI-H596 | 0.87 | 0.834 | 0.965 | 0.889 | 0.528 | 0.534 | 0.504 | 0.509 | 0.41 | 1.02 | 0.809 | 0.971 | 1.06 | 0.715 | 0.986 | 1.08 | 0.982 | 1 | 0.863
RERF-LC-KJ | 0.871 | 0.942 | 0.837 | 0.924 | 0.496 | 0.486 | 0.472 | 0.47 | 0.424 | 0.386 | 0.554 | 0.61 | 0.383 | 0.442 | 0.75 | 0.771 | 0.705 | 0.688 | 0.628
NCI-H322M | 0.965 | 1.1 | 1.02 | 1.13 | 0.79 | 0.654 | 0.588 | 0.48 | 0.602 | 0.473 | 0.468 | 0.498 | 0.487 | 0.499 | 0.724 | 0.743 | 0.746 | 0.705 | 0.695
COR-L 105 | 1.22 | 1.07 | 1.13 | 1.67 | 1 | 1.12 | 0.94 | 0.98 | 0.619 | 0.386 | 0.366 | 0.323 | 0.388 | 0.331 | 0.697 | 0.659 | 0.643 | 0.751 | 0.538
NCI-H1993 | 0.857 | 0.744 | 0.887 | 0.808 | 0.652 | 0.653 |  | 0.632 | 0.642 | 0.614 | 0.593 | 0.592 | 0.617 | 0.548 | 0.723 | 0.732 | 0.589 | 0.438 | 0.539
NCI-H1437 | 1.21 | 1.32 | 1.25 | 1.28 | 0.3 | 0.307 | 0.351 | 0.329 | 0.34 | 0.451 | 0.394 | 0.407 | 0.381 | 0.384 | 0.622 | 0.572 | 0.606 | 0.629 | 0.533
NCI-H838 | 1.03 | 0.996 | 1.08 | 0.996 | 0.259 | 0.244 | 0.24 | 0.205 | 0.181 | 0.317 | 0.283 | 0.301 | 0.249 | 0.237 | 0.455 | 0.468 | 0.459 | 0.483 | 0.481
NCI-H1666 | 0.887 | 0.987 | 0.963 | 1.03 | 0.872 | 0.815 | 0.847 | 0.956 | 0.974 | 0.609 | 0.698 | 0.611 | 0.656 | 0.592 | 0.766 | 0.714 | 0.658 | 0.704 | 0.679
NCI-H1944 | 0.845 | 0.884 | 0.997 | 0.839 | 0.594 | 0.605 | 0.73 | 0.596 | 0.611 | 0.289 | 0.25 | 0.237 | 0.223 | 0.242 | 0.453 | 0.416 | 0.43 | 0.397 | 0.459
NCI-H2023 | 0.789 | 0.803 | 1.16 | 1.11 | 0.226 | 0.262 | 0.211 |  | 0.245 | 0.479 | 0.431 | 0.409 | 0.321 | 0.2 | 0.249 | 0.21 | 0.217 | 0.165 | 0.166
EBC-1 | 0.116 | 0.111 | 0.0919 | 0.135 |  |  |  |  |  |  |  |  |  |  |  |  |  |  | 
ABC-1 | 1.04 | 1.1 | 1.46 | 1.35 |  |  |  |  |  | 0.165 | 0.197 | 0.175 | 0.137 | 0.134 | 1.03 | 0.958 | 0.976 | 1.18 | 0.836
NCI-H1563 | 0.727 | 0.94 | 0.943 | 0.973 | 0.772 | 0.915 | 0.867 | 0.413 | 0.706 |  |  |  |  |  |  |  |  |  | 
NCI-H1648 |  |  |  |  | 1.12 | 0.933 | 1.03 | 1.12 | 1.28 | 0.418 | 0.564 | 0.467 | 0.398 | 0.597 | 0.487 | 0.6 | 0.613 | 0.524 | 0.376
NCI-H1299 | 1.1 | 1.08 | 1.07 | 1.08 |  |  |  |  |  |  |  |  |  |  |  |  |  |  | 
A549 | 0.932 | 0.979 | 1.03 | 1.01 |  |  |  |  |  |  |  |  |  |  | 0.246 | 0.25 | 0.277 | 0.267 | 0.127
NCI-H1623 | 0.891 | 0.702 | 1.03 | 0.924 |  |  |  |  |  | 0.482 | 0.414 | 0.482 | 0.47 | 0.405 |  |  |  |  | 
NCI-H1703 | 0.389 | 0.355 | 0.349 | 0.348 |  |  |  |  |  |  |  |  |  |  |  |  |  |  | 
HCC-44 |  |  |  |  | 0.594 | 0.603 | 0.636 | 0.707 | 0.627 | 1.05 | 0.913 | 1.04 | 0.976 | 1.02 | 0.94 | 0.978 | 0.998 | 0.975 | 0.955
NCI-H522 |  |  |  |  | 0.842 | 1.09 | 0.956 | 1.05 | 1.01 | 0.578 | 0.458 | 0.555 | 0.572 | 0.545 | 0.807 | 0.699 | 0.618 | 0.803 | 0.636
Calu-6 | 0.951 | 0.912 | 0.781 | 0.914 |  |  |  |  |  |  |  |  |  |  |  |  |  |  | 
